Reference: ChEMBL document CHEMBL1201862, “PubChem BioAssay data set” (2004)
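48-hour exposure; five concentrations; linearly interpolated endpoints. Abbreviation: GI50, concentration required for 50% inhibition of growth.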 The source made the active and inactive calls. Rule as the data show it: active = GI50 up to about 1.1 µM and inactive = higher.

Assays:
Assay in all cases: inhibition of tumour cell growth, NCI panel, 48 h
HCT-116 = tested on: HCT-116
UO-31 = tested on: UO-31
SR = tested on: SR
SK-MEL-5 = tested on: SK-MEL-5
UACC-257 = tested on: UACC-257
NCI-H23 = tested on: NCI-H23
SK-MEL-28 = tested on: SK-MEL-28
SK-OV-3 = tested on: SK-OV-3
NCI-H460 = tested on: NCI-H460
RXF 393 = tested on: RXF 393
T47D = tested on: T47D
SNB-19 = tested on: SNB-19
IGROV-1 = tested on: IGROV-1
COLO 205 = tested on: COLO 205
SF-268 = tested on: SF-268
U-251 = tested on: U-251
Malme-3M = tested on: Malme-3M
RPMI-8226 = tested on: RPMI-8226
KM12 = tested on: KM12
UACC-62 = tested on: UACC-62

SMILES | GI50 (HCT-116) | GI50 (UO-31) | GI50 (SR) | GI50 (SK-MEL-5) | GI50 (UACC-257) | GI50 (NCI-H23) | GI50 (SK-MEL-28) | GI50 (SK-OV-3) | GI50 (NCI-H460) | GI50 (RXF 393) | GI50 (T47D) | GI50 (SNB-19) | GI50 (IGROV-1) | GI50 (COLO 205) | GI50 (SF-268) | GI50 (U-251) | GI50 (Malme-3M) | GI50 (RPMI-8226) | GI50 (KM12) | GI50 (UACC-62)
CC(C)CC(NC(=O)C(O)C(N)Cc1ccccc1)C(=O)O (stereo not given) | > 100 µM (inactive) | 56.4 µM (inactive) | > 100 µM (inactive) | > 100 µM (inactive) | > 100 µM (inactive) | > 100 µM (inactive) | > 100 µM (inactive) | > 100 µM (inactive) | > 100 µM (inactive) | > 100 µM (inactive) | > 100 µM (inactive) | > 100 µM (inactive) | > 100 µM (inactive) | > 100 µM (inactive) | > 100 µM (inactive) | > 100 µM (inactive) | > 100 µM (inactive) | > 100 µM (inactive) | > 100 µM (inactive) | > 100 µM (inactive)
Cc1ccc(C(=O)N/N=C(\N=N\c2cccc([N+](=O)[O-])c2)c2ccc(N(CCC#N)CCC#N)cc2C)cc1 | 28.4 µM (inactive) | 39.5 µM (inactive) | 21.6 µM (inactive) | 13.6 µM (inactive) | 10.6 µM (inactive) | 20.5 µM (inactive) | > 46.8 µM (inactive) | 36.8 µM (inactive) | 29 µM (inactive) | 8.75 µM (inactive) | 9.18 µM (inactive) | 53.7 µM (inactive) | 19.2 µM (inactive) | 4.73 µM (inactive) | 33.6 µM (inactive) | 36.1 µM (inactive) | 4.12 µM (inactive) | 13 µM (inactive) | 19.7 µM (inactive) | 26.1 µM (inactive)
COc1cc(/C=C/C(=O)Oc2ccc(NC(C)=O)cc2)ccc1C(=O)OCc1ccccc1 | > 100 µM (inactive) | > 100 µM (inactive) | > 100 µM (inactive) | > 100 µM (inactive) | > 100 µM (inactive) | > 89.9 µM (inactive) | > 100 µM (inactive) | 48.4 µM (inactive) | > 73.1 µM (inactive) | 28.8 µM (inactive) | > 100 µM (inactive) | 52.7 µM (inactive) | 67.5 µM (inactive) | > 100 µM (inactive) | 56.6 µM (inactive) | 41 µM (inactive) | > 93.5 µM (inactive) | > 100 µM (inactive) | > 100 µM (inactive) | 69.2 µM (inactive)
Cc1c(Cl)nc(Cl)nc1Cl | 1.14 µM (inactive) | 0.409 µM (active) | 0.434 µM (active) | 2.16 µM (inactive) | 2.3 µM (inactive) | 2.18 µM (inactive) | 3.18 µM (inactive) | 3.91 µM (inactive) | 5.71 µM (inactive) | 1.87 µM (inactive) | 1.58 µM (inactive) | 3.81 µM (inactive) | 3.01 µM (inactive) | 0.307 µM (active) | 1.73 µM (inactive) | 1.77 µM (inactive) | 1.05 µM (active) | 2.38 µM (inactive) | 2.44 µM (inactive) | 4 µM (inactive)
